Measurements reported in the NIST ThermoML archive (doi:10.1021/je900596d).
± gives the expanded uncertainty stated by the source.

Conditions: Liquid; for vapor or sublimation pressure: Closed cell (Static) method; for mass density: 358 K, Vibrating tube method

**Q.** For `FC(F)=C(F)C(F)(F)F` [hexafluoropropene], which “vapor or sublimation pressure” value (357.06 K) is on record?
**A.** 3017.5 ± 5.3 kPa

**Q.** And the “vapor or sublimation pressure” value (357.27 K)?
**A.** 3031 ± 5 kPa

**Q.** And the “vapor or sublimation pressure” value (357.47 K)?
**A.** 3044.2 ± 5.4 kPa

**Q.** And the “vapor or sublimation pressure” value (357.56 K)?
**A.** 3050.4 ± 5.4 kPa

**Q.** And the mass density (3077.4 kPa)?
**A.** 720.16 ± 5.3 kg/m3

**Q.** And the mass density (3079.5 kPa)?
**A.** 727.89 ± 4.8 kg/m3

**Q.** What about the mass density (3081.5 kPa) of the same molecule?
**A.** 734.5 ± 4.5 kg/m3

**Q.** And the mass density (3083.8 kPa)?
**A.** 736.72 ± 4.4 kg/m3

**Q.** What about the mass density (3086 kPa) of the same molecule?
**A.** 740.82 ± 4.3 kg/m3

**Q.** What about the mass density (3088.2 kPa) of the same molecule?
**A.** 744.57 ± 4.6 kg/m3

**Q.** And the mass density (3109.3 kPa)?
**A.** 770.42 ± 3.6 kg/m3

**Q.** And the mass density (3111.5 kPa)?
**A.** 772.98 ± 3.5 kg/m3

**Q.** What about the mass density (3116.7 kPa) of the same molecule?
**A.** 777.53 ± 3.4 kg/m3

**Q.** And the mass density (3119.3 kPa)?
**A.** 780.08 ± 3.2 kg/m3

**Q.** What about the mass density (3122.7 kPa) of the same molecule?
**A.** 783.21 ± 3.2 kg/m3

**Q.** And the mass density (3129.1 kPa)?
**A.** 787.86 ± 3 kg/m3

**Q.** And the mass density (3135.8 kPa)?
**A.** 792.11 ± 2.7 kg/m3

**Q.** What about the mass density (3142.4 kPa) of the same molecule?
**A.** 796.64 ± 2.7 kg/m3

**Q.** What about the mass density (3148.6 kPa) of the same molecule?
**A.** 799.79 ± 2.5 kg/m3

**Q.** And the mass density (3156.4 kPa)?
**A.** 804.75 ± 2.4 kg/m3

**Q.** And the mass density (3177.8 kPa)?
**A.** 815.22 ± 2.1 kg/m3

**Q.** And the mass density (3185.3 kPa)?
**A.** 818.23 ± 2 kg/m3

**Q.** What about the mass density (3192.2 kPa) of the same molecule?
**A.** 821.21 ± 2 kg/m3

**Q.** And the mass density (3200.1 kPa)?
**A.** 824.15 ± 1.9 kg/m3

**Q.** What about the mass density (3210.8 kPa) of the same molecule?
**A.** 828.42 ± 1.9 kg/m3

**Q.** And the mass density (3221.1 kPa)?
**A.** 831.96 ± 1.7 kg/m3

**Q.** And the mass density (3231.6 kPa)?
**A.** 835.41 ± 1.7 kg/m3

**Q.** And the mass density (3241.7 kPa)?
**A.** 838.72 ± 1.7 kg/m3

**Q.** What about the mass density (3252.2 kPa) of the same molecule?
**A.** 841.71 ± 1.6 kg/m3

**Q.** And the mass density (3262.8 kPa)?
**A.** 844.89 ± 1.6 kg/m3

**Q.** And the mass density (3273.9 kPa)?
**A.** 847.83 ± 1.6 kg/m3

**Q.** What about the mass density (3295.3 kPa) of the same molecule?
**A.** 853.38 ± 1.5 kg/m3

**Q.** What about the mass density (3306 kPa) of the same molecule?
**A.** 855.88 ± 1.5 kg/m3

**Q.** What about the mass density (3329 kPa) of the same molecule?
**A.** 860.99 ± 1.4 kg/m3

**Q.** And the mass density (3350.7 kPa)?
**A.** 865.7 ± 1.4 kg/m3

**Q.** And the mass density (3372.9 kPa)?
**A.** 869.87 ± 1.4 kg/m3

**Q.** And the mass density (3394.9 kPa)?
**A.** 874.14 ± 1.3 kg/m3

**Q.** What about the mass density (3416.1 kPa) of the same molecule?
**A.** 877.89 ± 1.3 kg/m3

**Q.** And the mass density (3438.3 kPa)?
**A.** 881.69 ± 1.3 kg/m3

**Q.** What about the mass density (3460.7 kPa) of the same molecule?
**A.** 885.32 ± 1.3 kg/m3

**Q.** What about the mass density (3482.9 kPa) of the same molecule?
**A.** 888.76 ± 1.2 kg/m3

**Q.** And the mass density (3504.8 kPa)?
**A.** 892.14 ± 1.2 kg/m3

**Q.** And the mass density (3528.7 kPa)?
**A.** 895.48 ± 1.2 kg/m3

**Q.** What about the mass density (3550.1 kPa) of the same molecule?
**A.** 898.37 ± 1.2 kg/m3

**Q.** What about the mass density (3572 kPa) of the same molecule?
**A.** 901.37 ± 1.2 kg/m3

**Q.** What about the mass density (3593.3 kPa) of the same molecule?
**A.** 903.96 ± 1.2 kg/m3

**Q.** And the mass density (3626 kPa)?
**A.** 907.95 ± 1.2 kg/m3

**Q.** What about the mass density (3637.5 kPa) of the same molecule?
**A.** 909.42 ± 1.2 kg/m3

**Q.** And the mass density (3650.1 kPa)?
**A.** 910.79 ± 1.2 kg/m3

**Q.** And the mass density (3672 kPa)?
**A.** 913.13 ± 1.2 kg/m3

**Q.** And the mass density (3692.4 kPa)?
**A.** 915.48 ± 1.2 kg/m3

**Q.** What about the mass density (3737.5 kPa) of the same molecule?
**A.** 920.3 ± 1.1 kg/m3

**Q.** What about the mass density (3781.6 kPa) of the same molecule?
**A.** 924.71 ± 1.1 kg/m3

**Q.** What about the mass density (3805.3 kPa) of the same molecule?
**A.** 927.04 ± 1.1 kg/m3

**Q.** What about the mass density (3827.1 kPa) of the same molecule?
**A.** 929.16 ± 1.1 kg/m3

**Q.** What about the mass density (3849.3 kPa) of the same molecule?
**A.** 931.26 ± 1.1 kg/m3

**Q.** What about the mass density (3870.8 kPa) of the same molecule?
**A.** 933.33 ± 1.1 kg/m3

**Q.** What about the mass density (3892.8 kPa) of the same molecule?
**A.** 935.23 ± 1.1 kg/m3

**Q.** What about the mass density (3914.1 kPa) of the same molecule?
**A.** 937.13 ± 1.1 kg/m3

**Q.** And the mass density (3959.7 kPa)?
**A.** 940.96 ± 1.1 kg/m3

**Q.** What about the mass density (3983.8 kPa) of the same molecule?
**A.** 943.01 ± 1.1 kg/m3

**Q.** And the mass density (4012.7 kPa)?
**A.** 945.18 ± 1.1 kg/m3

**Q.** And the mass density (4046.1 kPa)?
**A.** 947.77 ± 1.1 kg/m3

**Q.** And the mass density (4078.7 kPa)?
**A.** 950.34 ± 1.1 kg/m3

**Q.** And the mass density (4111.6 kPa)?
**A.** 952.85 ± 1.1 kg/m3

**Q.** What about the mass density (4143.9 kPa) of the same molecule?
**A.** 955.16 ± 1.1 kg/m3

**Q.** And the mass density (4176.6 kPa)?
**A.** 957.49 ± 1.1 kg/m3
